# Assay results from PubChem BioAssay (NCI).
#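 Grown in 96-well plates, cells were treated for 48 hours with each compound at five concentrations. Insufficient inhibition: endpoint recorded as highest concentration tested. TGI denotes the concentration required for complete inhibition of growth.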
# Columns and labels:
# Test in all cases: NCI tumour cell line growth inhibition, 48 h
# [1] = tested on: A498 renal
# [2] = tested on: OVCAR-8 ovarian
# [3] = tested on: RPMI-8226 leukemia
# [4] = tested on: M14 melanoma
# [5] = tested on: SK-MEL-5 melanoma
# [6] = tested on: SF-295 CNS
# [7] = tested on: SF-539 CNS
# [8] = tested on: HT29 colon
# [9] = tested on: HCT-116 colon
# [10] = tested on: IGROV1 ovarian
# [11] = tested on: HL-60(TB) leukemia
# [12] = tested on: U251 CNS
# [13] = tested on: NCI-H522 lung
# [14] = tested on: DMS 114 small cell lung
# [15] = tested on: RXF-631 renal
# [16] = tested on: LXFL 529 NSCLC
# [17] = tested on: KM20L2 colon
# [18] = tested on: M19-MEL melanoma
# [19] = tested on: OVCAR-4 ovarian
# [20] = tested on: KM12 colon
# [21] = tested on: NCI-H226 lung
# [22] = tested on: SN12C renal
# [23] = tested on: NCI-H460 lung
# [24] = tested on: UACC-62 melanoma
# [25] = tested on: OVCAR-3 ovarian
# [26] = tested on: SK-OV-3 ovarian
# [27] = tested on: HCT-15 colon
# [28] = tested on: CAKI-1 renal
# [29] = tested on: EKVX NSCLC
# [30] = tested on: XF 498 CNS
# [31] = tested on: SW-620 colon
# [32] = tested on: LOX IMVI melanoma
# [33] = tested on: UACC-257 melanoma
# [34] = tested on: CCRF-CEM leukemia
# [35] = tested on: 786-0 renal
# [36] = tested on: TK-10 renal
# [37] = tested on: SNB-19 CNS
# [38] = tested on: DLD-1 colon
# [39] = tested on: NCI-H23 lung
# [40] = tested on: OVCAR-5 ovarian
# [41] = tested on: HOP-62 NSCLC
# [42] = tested on: K-562 leukemia
# [43] = tested on: SF-268 CNS
# [44] = tested on: A549 NSCLC
# [45] = tested on: MALME-3M melanoma
# [46] = tested on: MOLT-4 leukemia
# [47] = tested on: SNB-78 CNS
# [48] = tested on: ACHN renal
# [49] = tested on: SK-MEL-2 melanoma
# [50] = tested on: COLO 205 colon
# [51] = tested on: HOP-18 NSCLC
# [52] = tested on: RXF 393 renal
# [53] = tested on: SNB-75 CNS
# [54] = tested on: UO-31 renal
# [55] = tested on: SK-MEL-28 melanoma
# [56] = tested on: HCC-2998 colon
# [57] = tested on: HOP-92 NSCLC
# [58] = tested on: SR leukemia
smiles,measurement,setting,value
COC(=O)[C@]1(C)CCC[C@]2(C)C3CC4OOC3(C=C4C(C)(C)O)CCC21 (some centres not stated),TGI,[1],> 100 µM
same,TGI,[2],> 100 µM
same,TGI,[3],37.3 µM
same,TGI,[4],> 100 µM
same,TGI,[5],> 100 µM
same,TGI,[6],> 100 µM
same,TGI,[7],> 100 µM
same,TGI,[8],56.9 µM
same,TGI,[9],> 100 µM
same,TGI,[10],> 100 µM
same,TGI,[11],32 µM
same,TGI,[12],> 100 µM
same,TGI,[13],47.3 µM
same,TGI,[14],> 100 µM
same,TGI,[15],> 100 µM
same,TGI,[16],65.6 µM
same,TGI,[17],> 100 µM
same,TGI,[18],> 100 µM
same,TGI,[19],> 100 µM
same,TGI,[20],> 100 µM
same,TGI,[21],> 100 µM
same,TGI,[22],> 100 µM
same,TGI,[23],> 100 µM
same,TGI,[24],> 100 µM
same,TGI,[25],> 100 µM
same,TGI,[26],> 100 µM
same,TGI,[27],> 100 µM
same,TGI,[28],> 100 µM
same,TGI,[29],> 100 µM
same,TGI,[30],46.7 µM
same,TGI,[31],> 100 µM
same,TGI,[32],> 100 µM
same,TGI,[33],> 100 µM
same,TGI,[34],57.8 µM
same,TGI,[35],> 100 µM
same,TGI,[36],> 100 µM
same,TGI,[37],> 100 µM
same,TGI,[38],> 100 µM
same,TGI,[39],> 100 µM
same,TGI,[40],> 100 µM
same,TGI,[41],> 100 µM
same,TGI,[42],64.3 µM
same,TGI,[43],> 100 µM
same,TGI,[44],> 100 µM
same,TGI,[45],> 100 µM
same,TGI,[46],67.3 µM
same,TGI,[47],> 100 µM
same,TGI,[48],> 100 µM
same,TGI,[49],> 100 µM
same,TGI,[50],> 100 µM
NC(=O)/C(=N\NC(=O)c1cc2ccccc2cc1O)C1C(=O)N(c2ccccc2)N=C1N (configuration not stated),TGI,[1],37.5 µM
same,TGI,[2],> 100 µM
same,TGI,[51],> 100 µM
same,TGI,[3],> 100 µM
same,TGI,[4],> 100 µM
same,TGI,[52],> 100 µM
same,TGI,[5],37.2 µM
same,TGI,[6],> 100 µM
same,TGI,[8],> 100 µM
same,TGI,[9],> 100 µM
same,TGI,[10],> 100 µM
same,TGI,[53],> 100 µM
same,TGI,[11],47.2 µM
same,TGI,[12],> 100 µM
same,TGI,[54],> 100 µM
same,TGI,[14],53.2 µM
same,TGI,[15],> 100 µM
same,TGI,[16],> 100 µM
same,TGI,[17],> 100 µM
same,TGI,[55],> 100 µM
same,TGI,[18],> 100 µM
same,TGI,[19],> 100 µM
same,TGI,[20],> 100 µM
same,TGI,[21],> 100 µM
same,TGI,[56],> 100 µM
same,TGI,[22],> 100 µM
same,TGI,[23],> 100 µM
same,TGI,[24],35.9 µM
same,TGI,[25],> 100 µM
same,TGI,[29],> 100 µM
same,TGI,[30],> 100 µM
same,TGI,[31],> 100 µM
same,TGI,[32],> 100 µM
same,TGI,[33],65 µM
same,TGI,[57],94.6 µM
same,TGI,[34],87.6 µM
same,TGI,[35],> 100 µM
same,TGI,[36],> 100 µM
same,TGI,[37],> 100 µM
same,TGI,[38],> 100 µM
same,TGI,[39],56.5 µM
same,TGI,[40],54 µM
same,TGI,[41],> 100 µM
same,TGI,[43],> 100 µM
same,TGI,[44],> 100 µM
same,TGI,[45],> 100 µM
same,TGI,[46],94.5 µM
same,TGI,[47],> 100 µM
same,TGI,[48],> 100 µM
same,TGI,[49],83 µM
same,TGI,[50],> 100 µM
CC(=O)/C(=C\c1ccccc1)C(=O)Nc1ccccc1,TGI,[2],> 100 µM
same,TGI,[51],> 100 µM
same,TGI,[3],> 100 µM
same,TGI,[4],> 100 µM
same,TGI,[52],> 100 µM
same,TGI,[5],> 100 µM
same,TGI,[6],> 100 µM
same,TGI,[7],> 100 µM
same,TGI,[8],> 100 µM
same,TGI,[9],> 100 µM
same,TGI,[10],> 100 µM
same,TGI,[11],> 100 µM
same,TGI,[12],> 100 µM
same,TGI,[13],> 100 µM
same,TGI,[54],> 100 µM
same,TGI,[14],> 100 µM
same,TGI,[15],> 100 µM
same,TGI,[16],> 100 µM
same,TGI,[18],> 100 µM
same,TGI,[19],> 100 µM
same,TGI,[20],> 100 µM
same,TGI,[21],> 100 µM
same,TGI,[56],> 100 µM
same,TGI,[58],> 100 µM
same,TGI,[22],> 100 µM
same,TGI,[23],> 100 µM
same,TGI,[24],> 100 µM
same,TGI,[25],> 100 µM
same,TGI,[26],> 100 µM
same,TGI,[28],> 100 µM
same,TGI,[29],> 100 µM
same,TGI,[30],> 100 µM
same,TGI,[31],> 100 µM
same,TGI,[32],> 100 µM
same,TGI,[33],> 100 µM
same,TGI,[57],> 100 µM
same,TGI,[34],> 100 µM
same,TGI,[35],> 100 µM
same,TGI,[36],> 100 µM
same,TGI,[37],> 100 µM
same,TGI,[38],> 100 µM
same,TGI,[39],> 100 µM
same,TGI,[40],> 100 µM
same,TGI,[41],> 100 µM
same,TGI,[42],> 100 µM
same,TGI,[43],> 100 µM
same,TGI,[44],> 100 µM
same,TGI,[45],> 100 µM
same,TGI,[46],> 100 µM
same,TGI,[47],> 100 µM
same,TGI,[48],> 100 µM
same,TGI,[49],> 100 µM
O=C1C(c2ccccc2)=[N+]([O-])c2ccc(Cl)cc21,TGI,[1],> 100 µM
same,TGI,[2],30.5 µM
same,TGI,[51],> 100 µM
same,TGI,[3],> 100 µM
same,TGI,[4],> 100 µM
same,TGI,[52],29.1 µM
same,TGI,[5],35.2 µM
same,TGI,[6],> 100 µM
same,TGI,[7],38.5 µM
same,TGI,[8],56.1 µM
same,TGI,[9],34.7 µM
same,TGI,[10],57 µM
same,TGI,[53],> 100 µM
same,TGI,[11],38.5 µM
same,TGI,[12],65.1 µM
same,TGI,[13],31 µM
same,TGI,[54],> 100 µM
same,TGI,[14],25.6 µM
same,TGI,[15],86.2 µM
same,TGI,[16],34.9 µM
same,TGI,[17],> 100 µM
same,TGI,[55],48.8 µM
same,TGI,[18],42.1 µM
same,TGI,[20],> 100 µM
same,TGI,[21],49.9 µM
same,TGI,[58],> 100 µM
same,TGI,[22],67.4 µM
same,TGI,[23],> 100 µM
same,TGI,[24],35 µM
same,TGI,[25],59.9 µM
same,TGI,[26],> 100 µM
same,TGI,[27],64.2 µM
same,TGI,[29],47.3 µM
same,TGI,[30],35.8 µM
same,TGI,[31],93.3 µM
same,TGI,[32],32.7 µM
same,TGI,[33],46.8 µM
same,TGI,[57],0.096 µM
same,TGI,[34],> 100 µM
same,TGI,[35],> 100 µM
same,TGI,[36],77.9 µM
same,TGI,[37],> 100 µM
same,TGI,[38],51.3 µM
same,TGI,[39],> 100 µM
same,TGI,[40],61.5 µM
same,TGI,[41],> 100 µM
same,TGI,[42],> 100 µM
same,TGI,[43],62.4 µM
same,TGI,[44],> 100 µM
same,TGI,[45],61.8 µM
same,TGI,[46],81.6 µM
same,TGI,[48],56.7 µM
same,TGI,[49],> 100 µM
same,TGI,[50],28.9 µM
